# Measured values as given in patent US8937092B2, “Aryl or N-heteroaryl substituted methanesulfonamide derivatives as vanilloid receptor ligands” (Gruenenthal GmbH, priority 2011, dated 2015).
# Molecular target: vanilloid receptor 1 (VR1/TRPV1 receptor) (Homo sapiens, UniProt Q8NER1)
# Assay: Functional FLIPR Ca2+ influx assay on vanilloid receptor 1, capsaicin (Cap) stimulus
# Format: cell-based
# Conditions: Ki from IC50 by Cheng-Prusoff, read-out: (f) Ki (human being) [nM], Cap
# Description: Furthermore, preference may be given to compounds according to the invention that cause a 50 percent displacement of capsaicin, which is present at a concentration of 100 nM, in a FLIPR assay with CHO K1 cells which were transfected with the human VR1 gene at a concentration of less than 2,000 nM, preferably less than 1,000 nM, particularly preferably less than 300 nM, most particularly preferably less than 100 nM, even more preferably less than 75 nM, additionally preferably less than 50 nM, most preferably less than 10 nM.
# In the process, the Ca^2+ influx is quantified in the FLIPR assay with the aid of a Ca^2+-sensitive dye (type Fluo-4, Molecular Probes Europe BV, Leiden, the Netherlands) in a fluorescent imaging plate reader (FLIPR, Molecular Devices, Sunnyvale, USA), as described hereinafter.
# Pharmacological Methods I. Functional Testing Carried Out on the Vanilloid Receptor 1 (VRI/TRPV1 Receptor) […]
# The number of cells in the suspension is set to 3×10^5 per mL and 150 μL of this suspension are in each case introduced into a recess in the cell culture plates coated as described hereinbefore. In the incubator the plates are left for two to three days at 37° C., 5% by volume of CO2 and 95% relative humidity. Subsequently, the cells are loaded with 2 μM of Fluo-4 and 0.01% by volume of Pluronic F127 (Molecular Probes Europe BV, Leiden, the Netherlands) in HBSS buffer (Hank's buffered saline solution, Gibco Invitrogen GmbH, Karlsruhe, Germany) for 30 min at 37° C., washed 3 times with HBSS buffer and after further incubation for 15 minutes at room temperature used for Ca^2+ measurement in a FLIPR assay. The Ca^2+-dependent fluorescence is in this case measured before and after the addition of substances (λex=488 nm, λem=540 nm). Quantification is carried out by measuring the highest fluorescence intensity (FC, fluorescence counts) over time.
# The FLIPR protocol consists of 2 substance additions. First the compounds to be tested (10 μM) are pipetted onto the cells and the Ca^2+ influx is compared with the control (capsaicin 10 μM). This provides the result in % activation based on the Ca^2+ signal after the addition of 10 μM of capsaicin (CP). After 5 minutes' incubation, 100 nM of capsaicin are applied and the Ca^2+ influx is also determined.
# Desensitising agonists and antagonists lead to suppression of the Ca^2+ influx. The % inhibition is calculated compared to the maximum achievable inhibition with 10 μM of capsazepine.
# Triple analyses (n=3) are carried out and repeated in at least 3 independent experiments (N=4).
# Starting from the percentage displacement caused by different concentrations of the compounds to be tested of general formula I, IC50 inhibitory concentrations which cause a 50-percent displacement of capsaicin were calculated. K, values for the test substances were obtained by conversion by means of the Cheng-Prusoff equation (Cheng, Prusoff; Biochem. Pharmacol. 22, 3099-3108, 1973).
# The affinity of the compounds according to the invention for the vanilloid receptor 1 (VR1/TRPV1 receptor) was determined as described herein before (pharmacological method I).
# The value after the “@” symbol indicates the concentration at which the inhibition (as a percentage) was respectively determined.
row,SMILES,Ki
1,"Cc1ccc(-c2nc(C(F)(F)F)ccc2CNC(=O)C(C)c2ccc(CNS(C)(=O)=O)c(F)c2)cc1 (centres unmarked) [Example 29, 2-(3-fluoro-4-(methylsulfonamidomethyl)phenyl)-N-((2-p-tolyl-6-(trifluoromethyl)pyridin-3-yl)methyl)propanamide]",32 nM
2,"Cc1cccc(-c2nc(C(F)(F)F)ccc2CNC(=O)C(C)c2ccc(CNS(C)(=O)=O)c(F)c2)c1C (centres unmarked) [Example 30, N-((2-(2,3-dimethylphenyl)-6-(trifluoromethyl)pyridin-3-yl)methyl)-2-(3-fluoro-4-(methylsulfonamidomethyl)phenyl)propanamide]",41 nM
3,"Cc1ccc(-c2nc(C(F)(F)F)ccc2CNC(=O)C(C)c2ccc(CNS(C)(=O)=O)c(F)c2)cc1C (centres unmarked) [Example 31, N-((2-(3,4-dimethylphenyl)-6-(trifluoromethyl)pyridin-3-yl)methyl)-2-(3-fluoro-4-(methylsulfonamidomethyl)phenyl)propanamide]",28 nM
4,"Cc1cccc(-c2nc(C(F)(F)F)ccc2CNC(=O)C(C)c2ccc(CNS(C)(=O)=O)c(F)c2)c1F (centres unmarked) [Example 34, N-((2-(2-fluoro-3-methylphenyl)-6-(trifluoromethyl)pyridin-3-yl)methyl)-2-(3-fluoro-4-(methylsulfonamidomethyl)phenyl)propanamide]",27 nM
5,"Cc1cc(F)cc(-c2nc(C(F)(F)F)ccc2CNC(=O)C(C)c2ccc(CNS(C)(=O)=O)c(F)c2)c1 (centres unmarked) [Example 36, 2-(3-fluoro-4-(methylsulfonamidomethyl)phenyl)-N-((2-(3-fluoro-5-methylphenyl)-6-(trifluoromethyl)pyridin-3-yl)methyl)propanamide]",63 nM
6,"Cc1cc(-c2nc(C(F)(F)F)ccc2CNC(=O)C(C)c2ccc(CNS(C)(=O)=O)c(F)c2)ccc1C#N (centres unmarked) [Example 39, N-((2-(4-cyano-3-methylphenyl)-6-(trifluoromethyl)pyridin-3-yl)methyl)-2-(3-fluoro-4-(methylsulfonamidomethyl)phenyl)propanamide]",66 nM
7,"COc1c(C)cccc1-c1nc(C(F)(F)F)ccc1CNC(=O)C(C)c1ccc(CNS(C)(=O)=O)c(F)c1 (centres unmarked) [Example 42, 2-(3-fluoro-4-(methylsulfonamidomethyl)phenyl)-N-((2-(2-methoxy-3-methylphenyl)-6-(trifluoromethyl)pyridin-3-yl)methyl)propanamide]",65 nM
8,"COc1ccc(-c2nc(C(F)(F)F)ccc2CNC(=O)C(C)c2ccc(CNS(C)(=O)=O)c(F)c2)cc1C (centres unmarked) [Example 43, 2-(3-fluoro-4-(methylsulfonamidomethyl)phenyl)-N-((2-(4-methoxy-3-methylphenyl)-6-(trifluoromethyl)pyridin-3-yl)methyl)propanamide]",35 nM
9,"COc1cc(C)cc(-c2nc(C(F)(F)F)ccc2CNC(=O)C(C)c2ccc(CNS(C)(=O)=O)c(F)c2)c1 (centres unmarked) [Example 44, 2-(3-fluoro-4-(methylsulfonamidomethyl)phenyl)-N-((2-(3-methoxy-5-methylphenyl)-6-(trifluoromethyl)pyridin-3-yl)methyl)propanamide]",106 nM
10,"CCOc1cc(C)cc(-c2nc(C(F)(F)F)ccc2CNC(=O)C(C)c2ccc(CNS(C)(=O)=O)c(F)c2)c1 (centres unmarked) [Example 47, N-((2-(3-ethoxy-5-methylphenyl)-6-(trifluoromethyl)pyridin-3-yl)methyl)-2-(3-fluoro-4-(methylsulfonamidomethyl)phenyl)propanamide]",37 nM
11,"COCc1cccc(-c2nc(C(F)(F)F)ccc2CNC(=O)C(C)c2ccc(CNS(C)(=O)=O)c(F)c2)c1 (centres unmarked) [Example 49, 2-(3-fluoro-4-(methylsulfonamidomethyl)phenyl)-N-((2-(3-(methoxymethyl)phenyl)-6-(trifluoromethyl)pyridin-3-yl)methyl)propanamide]",28 nM
12,"CC(C(=O)NCc1ccc(C(F)(F)F)nc1-c1cccc(N(C)C)c1)c1ccc(CNS(C)(=O)=O)c(F)c1 (centres unmarked) [Example 55, N-((2-(3-(dimethylamino)phenyl)-6-(trifluoromethyl)pyridin-3-yl)methyl)-2-(3-fluoro-4-(methylsulfonamidomethyl)phenyl)propanamide]",42 nM

# More lines, now with the values ahead:
row,Ki,SMILES
1,22 nM,"Cc1cc(C)cc(-c2nc(C(F)(F)F)ccc2CNC(=O)C(C)c2ccc(CNS(C)(=O)=O)c(F)c2)c1 (centres unmarked) [Example 32, N-((2-(3,5-dimethylphenyl)-6-(trifluoromethyl)pyridin-3-yl)methyl)-2-(3-fluoro-4-(methylsulfonamidomethyl)phenyl)propanamide]"
2,16 nM,"Cc1ccc(F)c(-c2nc(C(F)(F)F)ccc2CNC(=O)C(C)c2ccc(CNS(C)(=O)=O)c(F)c2)c1 (centres unmarked) [Example 37, 2-(3-fluoro-4-(methylsulfonamidomethyl)phenyl)-N-((2-(2-fluoro-5-methylphenyl)-6-(trifluoromethyl)pyridin-3-yl)methyl)propanamide]"
3,12 nM,"CCOc1ccc(-c2nc(C(F)(F)F)ccc2CNC(=O)C(C)c2ccc(CNS(C)(=O)=O)c(F)c2)cc1C (centres unmarked) [Example 46, N-((2-(4-ethoxy-3-methylphenyl)-6-(trifluoromethyl)pyridin-3-yl)methyl)-2-(3-fluoro-4-(methylsulfonamidomethyl)phenyl)propanamide]"
4,10 nM,"Cc1cccc(-c2nc(C(F)(F)F)ccc2CNC(=O)Nc2ccc(CNS(C)(=O)=O)c(F)c2)c1 [Example 27, N-(2-fluoro-4-(3-((2-m-tolyl-6-(trifluoromethyl)pyridin-3-yl)methyl)ureido)benzyl)methanesulfonamide]"
5,7 nM,"Cc1cc(-c2nc(C(F)(F)F)ccc2CNC(=O)C(C)c2ccc(CNS(C)(=O)=O)c(F)c2)ccc1F (centres unmarked) [Example 35, N-((2-(4-fluoro-3-methylphenyl)-6-(trifluoromethyl)pyridin-3-yl)methyl)-2-(3-fluoro-4-(methylsulfonamidomethyl)phenyl)propanamide]"
6,7 nM,"CC(C(=O)NCc1ccc(C(F)(F)F)nc1-c1cccc(C(F)F)c1)c1ccc(CNS(C)(=O)=O)c(F)c1 (centres unmarked) [Example 52, N-((2-(3-(difluoromethyl)phenyl)-6-(trifluoromethyl)pyridin-3-yl)methyl)-2-(3-fluoro-4-(methylsulfonamidomethyl)phenyl)propanamide]"
7,2 nM,"CC(C)c1cccc(-c2nc(C(F)(F)F)ccc2CNC(=O)C(C)c2ccc(CNS(C)(=O)=O)c(F)c2)c1 (centres unmarked) [Example 50, 2-(3-fluoro-4-(methylsulfonamidomethyl)phenyl)-N-((2-(3-isopropylphenyl)-6-(trifluoromethyl)pyridin-3-yl)methyl)propanamide]"
8,1 nM,"CC(C(=O)NCc1ccc(C(F)(F)F)nc1-c1cccc(C(C)(C)C)c1)c1ccc(CNS(C)(=O)=O)c(F)c1 (centres unmarked) [Example 51, N-((2-(3-tert-butylphenyl)-6-(trifluoromethyl)pyridin-3-yl)methyl)-2-(3-fluoro-4-(methylsulfonamidomethyl)phenyl)propanamide]"

# Same assay, conditions: inhibition at 1 μM, read-out: (f) inhibition (human being), Cap, @1 μM
row,inhibition at 1 µM,SMILES
1,15%,"COc1ccc(C)cc1-c1nc(C(F)(F)F)ccc1CNC(=O)C(C)c1ccc(CNS(C)(=O)=O)c(F)c1 (centres unmarked) [Example 45, 2-(3-fluoro-4-(methylsulfonamidomethyl)phenyl)-N-((2-(2-methoxy-5-methylphenyl)-6-(trifluoromethyl)pyridin-3-yl)methyl)propanamide]"

# Same assay, conditions: inhibition at 5 μM, read-out: (f) inhibition (human being), Cap, @5 μM
row,inhibition at 5 µM,SMILES
1,33%,"Cc1cccc(-c2nc(C(F)(F)F)ccc2CNC(=O)[C@H](C)c2ccc(CNS(C)(=O)=O)c(F)c2)c1 [Example 26, (R)-2-(3-fluoro-4-(methylsulfonamidomethyl)phenyl)-N-((2-m-tolyl-6-(trifluoromethyl)pyridin-3-yl)methyl)propanamide]"
2,35%,"Cc1ccc(C)c(-c2nc(C(F)(F)F)ccc2CNC(=O)C(C)c2ccc(CNS(C)(=O)=O)c(F)c2)c1 (centres unmarked) [Example 33, N-((2-(2,5-dimethylphenyl)-6-(trifluoromethyl)pyridin-3-yl)methyl)-2-(3-fluoro-4-(methylsulfonamidomethyl)phenyl)propanamide]"
